{
  "source": "patent US5962434A",
  "about": "“Compounds for stimulating nerve growth” (The Johns Hopkins University School of Medicine, priority 1996, dated 1999)",
  "biological_target": "T1, myelin-associated glycoprotein (MAG) (Rattus norvegicus, UniProt P07722)",
  "T1 sequence (P07722 20-626)": "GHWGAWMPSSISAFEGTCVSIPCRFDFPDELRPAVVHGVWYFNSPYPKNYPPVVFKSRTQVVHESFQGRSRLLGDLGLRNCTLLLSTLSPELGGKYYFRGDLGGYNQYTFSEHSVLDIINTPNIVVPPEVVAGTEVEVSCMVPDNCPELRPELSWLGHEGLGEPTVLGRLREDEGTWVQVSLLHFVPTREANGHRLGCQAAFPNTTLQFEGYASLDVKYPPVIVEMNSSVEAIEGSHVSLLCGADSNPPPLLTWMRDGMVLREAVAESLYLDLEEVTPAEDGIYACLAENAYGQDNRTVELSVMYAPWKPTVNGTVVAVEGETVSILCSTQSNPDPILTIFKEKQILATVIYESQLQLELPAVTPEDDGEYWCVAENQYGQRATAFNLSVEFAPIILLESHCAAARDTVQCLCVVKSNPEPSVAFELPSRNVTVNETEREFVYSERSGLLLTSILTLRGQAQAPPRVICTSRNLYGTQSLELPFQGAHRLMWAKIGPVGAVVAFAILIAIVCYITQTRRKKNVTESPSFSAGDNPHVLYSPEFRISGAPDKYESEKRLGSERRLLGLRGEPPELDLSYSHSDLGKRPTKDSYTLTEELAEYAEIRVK",
  "assay": "Adherence of MAG-transfected COS cells to microwell surfaces on which gangliosides/glycolipids were adsorbed (LDH activity)",
  "conditions": "for adhesion of MAG-transfected cells after neuraminidase treatment of the absorbed ganglioside: Vibrio cholerae neuraminidase-treated microwells; for MAG-transfected COS cells added that adhered: ganglioside-absorbed wells; for support of MAG-mediated cell adhesion: structure-function comparison, FIGS. 1C and 2",
  "data": [
    {"substance": "NeuAc α2,3 Gal β1,3(NeuAc α2,6) GalNAc β1,4(NeuAc α2,8 NeuAc α2,3)Gal β1,4Glc β1,1'Ceramide [GQ1bα]", "values": [
      {"measurement": "adhesion of MAG-transfected cells after neuraminidase treatment of the absorbed ganglioside", "result": "completely blocked"},
      {"measurement": "MAG-transfected COS cells added that adhered", "result": "70-80%"},
      {"measurement": "potency at supporting MAG-mediated cell adhesion relative to GT1b", "setting": "more potent than GT1b, FIGS. 2 and 3", "result": 8, "unit": "fold"}
    ]},
    {"substance": "NeuAc α2,3 Gal β1,3 GalNAc β1,4(NeuAc α2,3)Gal β1, 4Glcβ1,1'Ceramide [GD1a]", "values": [
      {"measurement": "binding compared to GM1b", "result": "enhanced binding"},
      {"measurement": "support of MAG-mediated cell adhesion", "result": "supported MAG-mediated cell adhesion"}
    ]},
    {"substance": "NeuAc α2,3 Gal β1,3GalNAc β1,4(NeuAc α2,8 NeuAc α2,3) Gal β1, 4 Glc β1,1'Ceramide [GT1b]", "values": [
      {"measurement": "adhesion of MAG-transfected cells after neuraminidase treatment of the absorbed ganglioside", "result": "did not support adhesion"},
      {"measurement": "adherence of MAG-transfected COS cells to ganglioside-absorbed surface", "setting": "artificial membrane monolayer with phosphatidylcholine and cholesterol, FIG. 1B", "result": "adhered in a concentration-dependent manner"},
      {"measurement": "binding compared to GM1b", "result": "enhanced binding"},
      {"measurement": "adherence of control-transfected COS cells", "setting": "control-transfected COS cells, FIG. 1B", "result": "did not bind"},
      {"measurement": "adhesion of MAG-transfected cells to control-treated microwells", "setting": "control-treated (no neuraminidase) microwells, FIG. 1D", "result": "supported adhesion"},
      {"measurement": "MAG-transfected COS cells added that adhered", "result": "30-40%"},
      {"measurement": "support of MAG-mediated cell adhesion", "result": "supported MAG-mediated cell adhesion"}
    ]}
  ]
}
